Hydrogenase activity and CODH activity data for one substance are collected here from US20090155875A1, “Methods to Enhance Carbon Monoxide Dehydrogenase Activity and Uses Thereof” (priority 2005, published 2009).

The subject of one test is Hydrogenase. Description: Hydrogenase activity in whole cells by H2 evolution (gas chromatography). The test is classed as cell-based, R. rubrum. The protocol:
Hydrogenase activity was determined using whole cells by measuring H2 evolution in an anaerobic reaction mixture containing 2 mM methyl viologen, 0.1% (w/v) Triton X-100 and 50 mM potassium phosphate buffer at pH 7.0. The reaction was initiated by adding 5 mM sodium dithionite. The reaction was incubated 15 minutes at 30° C. in a shaking water bath. The reaction was terminated by addition of 0.1 ml 10% (w/v) tricholoroacetic acid. Hydrogen in the gas phase was determined by gas chromatography as described in Maness, P. C. and Weaver, P. F. (2001) Appl. Microbiol. Biotechnol. 57:751-6.

The subject of the next test is CODH. Description: CODH activity by reduction of methyl viologen coupled to CO oxidation (absorption at 578 nm). It is filed as biochemical, R. rubrum. On the procedure: CODH activity was determined by the reduction of methyl viologen coupled to CO oxidation and the concomitant absorption at 578 nm by UV spectrophotometry. CODH activity was measured in an anaerobic reaction mixture containing 50 mM Tris-HCl, 2 mM methyl viologen and 2 mM dithiothreitol at pH 8.7 (Maness, P. C. and Weaver, P. F. (2002) Int. J. Hydrogen Energy 27:1407-11). The cell free, CODH-enriched fraction was prepared as described (Maness, P. C. and Weaver, P. F. (2001) Appl. Microbiol. Biotechnol. 57:751-6). The supernatant was used as the source of CODH enzyme.

CODH, sequence (P31896 2-639): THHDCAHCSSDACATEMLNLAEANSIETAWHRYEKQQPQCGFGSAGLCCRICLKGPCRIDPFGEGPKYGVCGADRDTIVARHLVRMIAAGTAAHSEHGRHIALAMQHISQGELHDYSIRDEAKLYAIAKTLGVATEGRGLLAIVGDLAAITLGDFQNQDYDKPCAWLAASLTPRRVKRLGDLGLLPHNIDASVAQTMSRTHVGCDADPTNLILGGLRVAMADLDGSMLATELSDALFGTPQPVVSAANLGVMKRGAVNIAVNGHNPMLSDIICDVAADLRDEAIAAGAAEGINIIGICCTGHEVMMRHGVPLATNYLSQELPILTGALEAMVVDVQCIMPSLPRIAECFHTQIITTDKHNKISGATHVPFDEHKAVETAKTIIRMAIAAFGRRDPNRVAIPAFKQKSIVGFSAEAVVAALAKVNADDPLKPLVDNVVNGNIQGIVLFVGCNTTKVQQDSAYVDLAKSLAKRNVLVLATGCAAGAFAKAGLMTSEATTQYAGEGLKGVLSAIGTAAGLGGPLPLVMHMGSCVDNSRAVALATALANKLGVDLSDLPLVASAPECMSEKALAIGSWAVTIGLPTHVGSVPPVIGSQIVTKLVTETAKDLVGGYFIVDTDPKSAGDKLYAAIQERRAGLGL

For the substance “hemoglobin: human α- and β-globin chains encoded in pHE2 plasmid; purified from E. coli and added, or expressed in the cells”, the hydrogenase activity is 250.4±89.1 nMol H2/min/mg cell dry weight in the test with Hydrogenase (expression of hemoglobin in the cells, p<0.02) and 266.9±27.0 nMol H2/min/mg cell dry weight with Hydrogenase (first statement, printed as 'hemoglobin expression', untreated 137.6±15.0, p<2×10^−6). The CODH activity is on record as 32.41±4.03 μmol methyl viologen reduction/min/ml in the test on CODH (addition of hemoglobin (soluble, final 1.5 μM heme), untreated 17.76±2.85, p<9×10^−6) and 29.60±7.30 μMol methyl viologen reduction/min/ml with CODH (expression of hemoglobin in the cells (pHE2 plasmid, IPTG induced), p<0.005).
